# Source: patent US20090226527A1, “Particulate-stabilized injectable pharmacutical compositions of posaconazole” (priority 2004, published 2009)
# Read-outs that look alike come from different tables or passages of the source.
# Experiments:
# [1] = test system: infectious agents (strains tested); experiment: microbe, parasite or virus in culture; format: cell-based
# [2] = Orally administered Posaconazole: plasma Cmax/Cavg by quartile and response rate for aspergillosis; format: in vivo, patients; details: human, plasma, po, 800 mg/day
# From the text: (§1) In order to determine the target dosing for intravenous administration, it was necessary to determine a target range for mean Cavg and mean Cmax. Previous studies on orally administered Posaconazole are instructive in this regard.
# (§2) At the same time, posaconazole has a long half-life and a large volume of distribution that results in sustained plasma levels and extensive penetration into body tissues with a likely accumulation in tissues. […] Thus, it can be inferred that posaconazole's long half-life and large volume of distribution results in sustained plasma and tissue levels allowing for safer and better tolerated pharmacokinetic behavior.
# aspergillosis = experiment: as above; format: in vivo, patients
# From the text: as §1, §2
# [3] = Rising Multiple Dose Study: plasma pharmacokinetics, safety, relative bioavailability of POS IV vs POS oral suspension; format: in vivo, human
# Procedure: A rising, multiple dose assessment of the safety, tolerability, and pharmacokinetics of intravenous Posaconazole in healthy subjects was also conducted. The pharmacokinetic objectives of the study were two-fold: first, to determine the single-dose and multiple-dose pharmacokinetic (PK) profiles of POS IV in healthy subjects; and second, to determine the relative bioavailability of POS IV vs POS oral suspension administered under fed conditions. The formulation used in this study is that of Example 8.
# Plasma obtained from blood samples was analyzed for POS using a validated LC-MS/MS method. Plasma pharmacokinetic parameters were determined. Safety was assessed by ECGs, clinical laboratory tests, vital signs, and adverse event monitoring.
# [4] = Solubility of Posaconazole in water; format: physicochemical
smiles,measurement,setting,value
CCC([C@@H](C)O)n1ncn(-c2ccc(N3CCN(c4ccc(OC[C@@H]5CO[C@@](Cn6cncn6)(c6ccc(F)cc6F)C5)cc4)CC3)cc2)c1=O (stereo partly shown) [Posaconazole],MIC,"[1]; Microsporum audouinii, read-out: Geometric Mean MIC",0.25 µg/mL
same,MIC,"[1]; Microsporum audouinii, read-out: MIC[90]",0.25 µg/mL
same,MIC,"[1]; Microsporum canis, read-out: Geometric Mean MIC",0.034 µg/mL
same,MIC,"[1]; Microsporum canis, read-out: MIC[90]",0.5 µg/mL
same,MIC,"[1]; Mucor spp, read-out: Geometric Mean MIC",0.694 µg/mL
same,MIC,"[1]; Mucor spp, read-out: MIC[90]",16 µg/mL
same,MIC,"[1]; Nakaseomyces glabratus, Candida glabrata, read-out: Geometric Mean MIC",0.672 µg/mL
same,MIC,"[1]; Nakaseomyces glabratus, Candida glabrata, read-out: MIC[90]",2 µg/mL
same,MIC,"[1]; Nannizzia fulva, Microsporum fulvum, read-out: Geometric Mean MIC",0.5 µg/mL
same,MIC,"[1]; Nannizzia fulva, Microsporum fulvum, read-out: MIC[90]",0.5 µg/mL
same,MIC,"[1]; Nannizzia gypsea, Microsporum gypseum, read-out: Geometric Mean MIC",0.042 µg/mL
same,MIC,"[1]; Nannizzia gypsea, Microsporum gypseum, read-out: MIC[90]",0.008 to 0.5 µg/mL
same,MIC,"[1]; Nannizzia persicolor, Microsporum persicolor, read-out: Geometric Mean MIC",0.25 µg/mL
same,MIC,"[1]; Nannizzia persicolor, Microsporum persicolor, read-out: MIC[90]",0.25 µg/mL
same,MIC,"[1]; Paecilomyces spp, read-out: Geometric Mean MIC",0.239 µg/mL
same,MIC,"[1]; Paecilomyces spp, read-out: MIC[90]",0.5 µg/mL
same,MIC,"[1]; Papiliotrema laurentii, Cryptococcus laurentii, read-out: Geometric Mean MIC",0.095 µg/mL
same,MIC,"[1]; Papiliotrema laurentii, Cryptococcus laurentii, read-out: MIC[90]",0.008 to 0.5 µg/mL
same,MIC,"[1]; Paracoccidioides brasiliensis, read-out: Geometric Mean MIC, Paracoccidioides brasiliensis",0.048 µg/mL
same,MIC,"[1]; Paracoccidioides brasiliensis, read-out: MIC[90], Paracoccidioides brasiliensis",0.125 µg/mL
same,MIC,"[1]; Penicillium spp, read-out: Geometric Mean MIC",0.308 µg/mL
same,MIC,"[1]; Penicillium spp, read-out: MIC[90]",1 µg/mL
same,MIC,"[1]; Pichia etchel, read-out: Geometric Mean MIC",0.125 µg/mL
same,MIC,"[1]; Pichia etchel, read-out: MIC[90]",0.125 µg/mL
same,MIC,"[1]; Pichia kudriavzevii, Candida krusei, read-out: Geometric Mean MIC",0.335 µg/mL
same,MIC,"[1]; Pichia kudriavzevii, Candida krusei, read-out: MIC[90]",1 µg/mL
same,MIC,"[1]; Pleurothecium obovoideum, Ramichloridium obovoideum, read-out: Geometric Mean MIC",0.044 µg/mL
same,MIC,"[1]; Pleurothecium obovoideum, Ramichloridium obovoideum, read-out: MIC[90]",0.031 to 0.063 µg/mL
same,MIC,"[1]; Rhizomucor spp, read-out: Geometric Mean MIC",0.016 µg/mL
same,MIC,"[1]; Rhizomucor spp, read-out: MIC[90]",0.016 µg/mL
same,MIC,"[1]; Rhizopus spp, read-out: Geometric Mean MIC",1 µg/mL
same,MIC,"[1]; Rhizopus spp, read-out: MIC[90]",4 µg/mL
same,MIC,"[1]; Saccharomyces cerevisiae, read-out: Geometric Mean MIC",0.249 µg/mL
same,MIC,"[1]; Saccharomyces cerevisiae, read-out: MIC[90]",1 µg/mL
same,MIC,"[1]; Scedosporium apiospermum, read-out: Geometric Mean MIC",0.173 µg/mL
same,MIC,"[1]; Scedosporium apiospermum, read-out: MIC[90]",1 µg/mL
same,MIC,"[1]; Scedosporium boydii, Pseudallescheria boydii, read-out: Geometric Mean MIC",0.365 µg/mL
same,MIC,"[1]; Scedosporium boydii, Pseudallescheria boydii, read-out: MIC[90]",1 µg/mL
same,MIC,"[1]; Sporothrix schenckii, read-out: Geometric Mean MIC",0.771 µg/mL
same,MIC,"[1]; Sporothrix schenckii, read-out: MIC[90]",2 µg/mL
same,MIC,"[1]; Trichophyton mentagrophytes, read-out: Geometric Mean MIC",0.036 µg/mL
same,MIC,"[1]; Trichophyton mentagrophytes, read-out: MIC[90]",0.125 µg/mL
same,MIC,"[1]; Trichophyton rubrum, Trichophyton raubitschekii, read-out: Geometric Mean MIC",0.25 µg/mL
same,MIC,"[1]; Trichophyton rubrum, Trichophyton raubitschekii, read-out: MIC[90]",0.25 µg/mL
same,MIC,"[1]; Trichophyton rubrum, read-out: Geometric Mean MIC",0.047 µg/mL
same,MIC,"[1]; Trichophyton rubrum, read-out: MIC[90]",0.25 µg/mL
same,MIC,"[1]; Trichophyton soudanense, read-out: Geometric Mean MIC",0.5 µg/mL
same,MIC,"[1]; Trichophyton soudanense, read-out: MIC[90]",0.5 µg/mL
same,MIC,"[1]; Trichophyton spp, read-out: Geometric Mean MIC",0.036 µg/mL
same,MIC,"[1]; Trichophyton spp, read-out: MIC[90]",0.064 µg/mL
same,MIC,"[1]; Trichophyton tonsurans, read-out: Geometric Mean MIC",0.029 µg/mL
same,MIC,"[1]; Trichophyton tonsurans, read-out: MIC[90]",0.125 µg/mL
same,MIC,"[1]; Trichosporon spp, read-out: Geometric Mean MIC",0.63 µg/mL
same,MIC,"[1]; Trichosporon spp, read-out: MIC[90]",0.5 to 1 µg/mL
same,MIC,"[1]; Yarrowia lipolytica, read-out: Geometric Mean MIC",0.144 µg/mL
same,MIC,"[1]; Yarrowia lipolytica, read-out: MIC[90]",0.016 to 1 µg/mL
same,Cmax,"[2]; Quartile 1, n = 17",142 ng/mL
same,Cmax,"[2]; Quartile 2, n = 17",467 ng/mL
same,Cmax,"[2]; Quartile 3, n = 17",852 ng/mL
same,Cmax,"[2]; Quartile 4, n = 16",1480 ng/mL
same,Response (response rate for aspergillosis),aspergillosis; Quartile 1,24%
same,"Plasma Cavg, mean","aspergillosis; Quartile 1, n = 17",134 ng/mL
same,Response (response rate for aspergillosis),aspergillosis; Quartile 2,53%
same,"Plasma Cavg, mean","aspergillosis; Quartile 2, n = 17",411 ng/mL
same,Response (response rate for aspergillosis),aspergillosis; Quartile 3,53%
same,"Plasma Cavg, mean","aspergillosis; Quartile 3, n = 17",719 ng/mL
same,Response (response rate for aspergillosis),aspergillosis; Quartile 4,71%
same,"Plasma Cavg, mean","aspergillosis; Quartile 4, n = 16",1250 ng/mL
same,Dose proportionality of exposure (Cmax and AUC),[3]; 100- to 400-mg range,approximately dose proportional
same,Safety and tolerability,"[3]; healthy subjects, 100-400 mg",safe and well tolerated
same,Daily dosing needed to achieve steady-state,"[3]; human, in vivo",6 to 7 days
same,clearance,"[3]; human, in vivo, Mean systemic clearance at steady-state",90 to 93.3 mL/min
same,clearance,"[3]; human, in vivo, Mean systemic clearance, single-dose administration on Day 1",137 to 192 mL/min
same,half-life,"[3]; human, in vivo, Single-dose half-life",26 to 29 h
same,half-life,"[3]; human, in vivo, plasma, read-out: Mean steady-state terminal half-life",33 to 37 h
same,Solubility in water,[4],minimally soluble in water
